Assay results as given in patent US9345700B2, “Compositions and methods useful for treating diseases” (Eutropics Pharmaceuticals, Inc., priority 2011, dated 2016).
Entries after “also recorded” stand apart in the source; their conditions may differ.

Columns and labels:
[1] = system: mitochondria from NCI 929; test: BH3 profiling of mitochondria isolated from NCI 929; format: cell-based; settings: isolated mitochondria of NCI 929
From the text: As another test of the ability of BH3 profiling to detect in vivo Mcl-1 dependence, the cancer cell line NCI 929 (obtained from ATCC) is examined. Mitochondria are isolated from this cell line and exposed to the panel of BH3 peptides in Table 1 and to compounds of Formula I or Formula II. MOMP is quantitated by JC-1 fluorescence and cytochrome c release is quantitated by ELISA as described in Examples 4 and 5. NCI 929 cells are sensitive to treatment with compounds of Formula I or Formula II in vitro. […] On the other hand, treatment of the mitochondria with compounds of Formula I or Formula II induces MOMP as measured by a decrease in the red JC-1 aggregate fluorescence and as measured by an increase in cytochrome c release. This provides support that compounds of formula identified Formula I or Formula II can substitute for Noxa in the mitochondrial BH3 profiling assay and that the mitochondrial response to these compounds is a powerful predictor of what cells are sensitive to Mcl-1 inhibiting drugs in vitro and in vivo.

SUDHL-10 = test: In situ mitochondrial cytochrome c release assay, semi-permeabilized SUDHL-10; format: cell-based, human; settings: 20 uM; BAX/BAK-deficient cell line
From the text: (§1) The on-target activity of compound II-19 was validated. Changes in mitochondrial integrity were observed utilizing anti-cytochrome c conjugated to Alexa488 (BD). When the mitochondria are intact, they retain cytochrome c and have bright, punctate staining with the antibody whereas cells with compromised mitochondrial integrity will lose cytochrome c and will not stain with the antibody. This can be observed by microscopy as well as measured by a shift in fluorescence on the FL1 channel of a flow cytometer.
(§2) The selective response of mitochondria in semi-permeabilized cell lines to the compounds was observed. The assay was adapted from (Campos et al. (2006) Cytometry Part A. 69 (A):515-523).
(§3) Suspension cell lines SUDHL10 and SUDHL6 were grown in RPMI, washed once in 1×PBS and re-suspended at a concentration of 2e6/ml in assay buffer with 0.0025% Digitonin. Assay buffer; 300 mM Trehalose, 10 mM HEPES-KOH pH 7.7, 80 mM KCl, 1 mM EGTA, 1 mM EDTA, 0.1% BSA, 5 mM Succinate. Cells are incubated with test and control compounds at 10^6 cells/treatment for 1 hour at room temperature. Samples are fixed with 4% formaldehyde in PBS for 20 minutes, washed once in PBS, and blocked with 2% FBS/0.5% TritonX-100 in PBS. Samples are re-suspended in blocking buffer with 1:250 anti-cytochrome c conjugated to Alexa488 (BD Cat#56028) for 1 hour at 4° C., washed once with blocking buffer and re-suspended in 200 ul PBS. Cytochrome c loss was measured by microscopy. At least 100 cells per treatment were counted and scored as positive for cytochrome c loss if they lacked staining. In both methods DMSO was calculated as 0% cytochrome c loss and the Bim response for DHL6 was used to determine 100% cytochrome c loss.

SUDHL-6 = test: In situ mitochondrial cytochrome c release assay, semi-permeabilized SUDHL-6; format: cell-based, human; settings: 20 uM; BAX/BAK-functional cell line
From the text: as §1, §2, §3

Row | Molecule | mitochondrial response to BH3 peptide [1] | release of cytochrome c in SUDHL-10 (SUDHL-10) | release of cytochrome c in SUDHL-6 (SUDHL-6)
1 | Bad: Bcl-xL reactive BH3 domain peptide Bad from the Table 1 panel (LWAAQRYGRELRRMSDEFEGSFKGL) | lacking a response |  | 
2 | O=C(Nc1cccnc1)c1cc(-c2cnn(C3CCCCO3)c2)nc2ccc(-c3ccccc3)cc12 (stereo not drawn) [Compound 37, 6-phenyl-N-(pyridin-3-yl)-2-(1-(tetrahydro-2H-pyran-2-yl)-1H-pyrazol-4-yl)quinoline-4-carboxamide] |  | lack of activity and not | activity; also recorded: cause release of cytochrome c
3 | O=C(Nc1ccccc1)c1cc(-c2ccco2)nc2ccc(-c3ccc4scnc4c3)cc12 [Compound 33, 6-(benzo[d]thiazol-5-yl)-2-(furan-2-yl)-N-phenylquinoline-4-carboxamide] |  | lack of activity and not | activity; also recorded: cause release of cytochrome c
4 | O=C(Nc1cccnc1)c1cc(-c2cn[nH]c2)nc2ccc(-c3ccccc3)cc12 [Compound 38, 6-phenyl-2-(1H-pyrazol-4-yl)-N-(pyridin-3-yl)quinoline-4-carboxamide] |  | lack of activity and not | activity; also recorded: cause release of cytochrome c
5 | O=C(Nc1cccnc1)c1cc(-c2ccco2)nc2ccc(-c3ccc4scnc4c3)cc12 [Compound 18, 6-(benzo[d]thiazol-5-yl)-2-(furan-2-yl)-N-(pyridin-3-yl)quinoline-4-carboxamide] |  | lack of activity and not | activity; also recorded: cause release of cytochrome c
